Results reported in patent US4355026A, “4-Demethoxy,11-deoxy anthracycline derivatives” (priority 1980, dated 1982).
Converted amounts (≈) assume the structure as drawn. Where two headings read alike, the source gives them in different places.

Key:
[1] = system: Staphylococcus aureus FDA 209; experiment: MIC on nutrient agar medium; format: cell-based; conditions: FDA209
From the text: (§1) The compounds of formula I provided by the present invention are also characterized by their antimicrobial activity. Table 3 summarizes the minimum inhibitory concentrations (MIC) of representative compounds of the present invention against various microorganisms on a nutrient agar medium.

Bacillus megatherium APF = experiment: MIC on nutrient agar medium; format: cell-based
From the text: as §1

[2] = system: Bacillus subtilis PCI 219; experiment: MIC on nutrient agar medium; format: cell-based; conditions: PCI219
From the text: as §1

[3] = system: Corynebacterium bovis 1810; experiment: MIC on nutrient agar medium; format: cell-based
From the text: as §1

[4] = system: Microccus lysodeikticus IFQ 3333; experiment: MIC on nutrient agar medium; format: cell-based
From the text: as §1

Salmonella typhi T - 63 = experiment: MIC on nutrient agar medium; format: cell-based; conditions: Salmonella enterica
From the text: as §1

Candida albicans 3147 = experiment: MIC on nutrient agar medium; format: cell-based
From the text: as §1

Microccus flavus FDA 16 = experiment: MIC on nutrient agar medium; format: cell-based
From the text: as §1

[5] = system: Klebsiella pneumonia PCI 602; experiment: MIC on nutrient agar medium; format: cell-based; conditions: Klebsiella pneumoniae, PCI602
From the text: as §1

[6] = system: Mycobacterium smegmatis ATCC 607; experiment: MIC on nutrient agar medium; format: cell-based; conditions: Mycolicibacterium smegmatis, ATCC607
From the text: as §1

[7] = system: Pseudomonas aeruginosa A3; experiment: MIC on nutrient agar medium; format: cell-based
From the text: as §1

[8] = system: Shigella flexneri 46 JS 11811; experiment: MIC on nutrient agar medium; format: cell-based; conditions: 46JS11811
From the text: as §1

[9] = system: Bacillus cereus ATCC 10702; experiment: MIC on nutrient agar medium; format: cell-based; conditions: ATCC10702
From the text: as §1

[10] = system: Staphylococcus aureus smith; experiment: MIC on nutrient agar medium; format: cell-based
From the text: as §1

Sarcina lutea PCI 1001 = experiment: MIC on nutrient agar medium; format: cell-based; conditions: Micrococcus luteus, PCI1001
From the text: as §1

Escherichia coli NIHJ = experiment: MIC on nutrient agar medium; format: cell-based
From the text: as §1

[11] = system: Bacillus subtilis NRRB- 558; experiment: MIC on nutrient agar medium; format: cell-based; conditions: NRRB558
From the text: as §1

L1210 leukemia cells [12] = experiment: Inhibitory effect on growth of L1210 cultivated leukemic cells of mice; format: cell-based; conditions: Mus musculus, RPMI 1640, 20% calf serum, 37° C.
Experimental: (§2) A. Inhibitory Effect on Growth, DNA Synthesis and RNA Synthesis of L1210 Cultivated Leukemic Cells of Mice
For example, L1210 cells were inoculated in a concentration of 5×10^4 cells/ml in an RPMI 1640 culture medium (Roswell Park Memorial Institute 1640) containing 20% calf serum and, simultaneously, representative compounds of the present invention were added in a concentration of 0.1 and 0.5 μg/ml. The cells were cultivated in a CO2 generator at 37° C. The 50% growth inhibitory concentration with respect to a control group was then determined.

[13] = system: L1210 leukemia cells, RNA synthesis; experiment: Inhibition of RNA synthesis (14C-uridine incorporation) of L1210 cultivated leukemic cells; format: cell-based; conditions: Mus musculus, L1210, 1 h, 14C-uridine, 60 minutes, 37° C.
Experimental: as §2
(§3) Separately, the above L1210 cultivated cells were suspended in a concentration of 5×10^5 cells/ml in an RPMI 1640 medium containing 10% calf serum and cultivated for 1 to 2 hours in a CO2 incubator at 37° C. Then, representative test compounds were added in various concentrations, and 15 minutes later, ^14 C-uridine (0.05 μCi/ml) or ^14 C-thymidine (0.05 μCi/ml) were added. The cells were incubated at 37° C. for 60 minutes. A 10% aqueous trichloroacetic acid solution was added to the incubation medium to stop the reaction and simultaneously precipitate acid-insoluble matter. The acid-insoluble matter was washed three times with a 5 to 10% aqueous solution of trichloroacetic acid and then dissolved in formic acid. The radioactivity of the acid-insoluble matter was measured. From the ratio of incorporated radiation to that of a control group, the concentrations which inhibited radiation by 10%, 50% and 90% respectively were measured.

L1210 leukemia cells [14] = experiment: Antitumor activity on CDFI mouse leukemia induced by mouse L1210 leukemia cells; format: in vivo, CDFI mice; design: key to Toxicity: *: Toxicity-
Experimental: B. Antitumor Activity on CDFI Mouse Leukemia Induced by Mouse L1210 Leukemia cells
L1210 leukemia cells of mice were intraperitoneally transplanted in an amount of 1×10^5 cells/mouse in CDFI mice. Starting 24 hours after the transplantation, each of the test compounds was intraperitoneally administered to the mice for 10 consecutive days. the survival rate (T/C, %) was calculated in comparison with a control group (to which physiological saline was administered).

[15] = system: L1210 leukemia cells, DNA synthesis; experiment: Inhibition of DNA synthesis (14C-thymidine incorporation) of L1210 cultivated leukemic cells; format: cell-based; conditions: Mus musculus, L1210, 1 h, 14C-thymidine, 60 minutes, 37° C.
Experimental: as §2, §3

[16] = 2.5 mg/kg/day, intraperitoneal, 10 consecutive days

Structure (SMILES): C[C@@H]1O[C@@H](O[C@H]2C[C@](O)(C(=O)CO)Cc3cc4c(c(O)c32)C(=O)c2ccccc2C4=O)C[C@H](N)[C@@H]1O (single isomer, unassigned; isomer 4) [4-Demethoxy-11-deoxy-adriamycin (7S,9S,1'α)isomer, 4-Demethoxy-11-deoxyadriamycin]
- MIC [1]: 100 µg/mL (≈ 201 µM)
- MIC (Bacillus megatherium APF): 12.5 µg/mL (≈ 25.1 µM)
- MIC [2]: 12.5 µg/mL (≈ 25.1 µM)
- MIC [3]: 100 µg/mL (≈ 201 µM)
- MIC [4]: 50 µg/mL (≈ 101 µM)
- MIC (Salmonella typhi T - 63): > 100 µg/mL
- MIC (Candida albicans 3147): > 100 µg/mL
- MIC (Microccus flavus FDA 16): 50 µg/mL (≈ 101 µM)
- MIC [5]: > 100 µg/mL
- MIC [6]: 12.5 µg/mL (≈ 25.1 µM)
- MIC [7]: > 100 µg/mL
- MIC [8]: > 100 µg/mL
- MIC [9]: 25 µg/mL (≈ 50.3 µM)
- MIC [10]: 12.5 µg/mL (≈ 25.1 µM)
- MIC (Sarcina lutea PCI 1001): 100 µg/mL (≈ 201 µM)
- MIC (Escherichia coli NIHJ): > 100 µg/mL
- MIC [11]: 12.5 µg/mL (≈ 25.1 µM)
- IC50 (L1210 leukemia cells [12]; L1210, 24 h, 1 day later, read-out: IC50 growth, 1 day later): 0.07 µg/mL (≈ 0.141 µM)
- IC50 (L1210 leukemia cells [12]; L1210, 48 h, 2 days later, read-out: IC50 growth, 2 days later): 0.03 µg/mL (≈ 0.0603 µM)
- IC50 ([13]; read-out: IC50 RNA synthesis): 0.8 µg/mL (≈ 1.61 µM)
- IC90 ([13]; 90% inhibition, read-out: IC90 RNA synthesis): 4.6 µg/mL (≈ 9.25 µM)
- Survival rate (T/C, %) (L1210 leukemia cells [14]; 0.15 mg/kg/day, intraperitoneal, 10 consecutive days): 135%
- Survival rate (T/C, %) (L1210 leukemia cells [14]; 0.3 mg/kg/day, intraperitoneal, 10 consecutive days): 162%
- Survival rate (T/C, %) (L1210 leukemia cells [14]; 0.6 mg/kg/day, intraperitoneal, 10 consecutive days): 184%
- Survival rate (T/C, %) (L1210 leukemia cells [14]; 1.25 mg/kg/day, intraperitoneal, 10 consecutive days): 308%
- Survival rate (T/C, %) (L1210 leukemia cells [14]; [16]): 177%
- Toxicity (L1210 leukemia cells [14]; [16]): *
- antitumor activity on experimental animal tumors (in words) (L1210 leukemia cells [14]; experimental animal tumors): particularly noteworthy
- IC50 ([15]; read-out: IC50 DNA synthesis): 0.64 µg/mL (≈ 1.29 µM)
- IC90 ([15]; 90% inhibition, read-out: IC90 DNA synthesis): 5.6 µg/mL (≈ 11.3 µM)
